Experiments:
oxytocin mRNA = oxytocin mRNA expression in hypothalamus, quantitative real-time PCR; type: in vivo, C57BL/6J male mice; conditions: oral 3 g/kg, 2 hours after administration, vs saline-administered group, relative to 36b4 (FIG. 5)
Procedure: (§1) C57BL/6J male mice (saline group: n=8, D-allulose group: n=9) were used as experimental animals and were acclimatized to an environment through preliminary breeding and handling for 1 week or more in individual cages. Saline or D-allulose (3 g/kg) was orally intragastrically administered to the mice which were fasted for one night, and 2 hours after the administration, the brain's hypothalamus was resected under anesthesia. cDNA was synthesized using the total RNA in hypothalamus as a template. The mRNA expression levels of oxytocin and vasopressin were quantified by the quantitative real-time PCR method. As the housekeeping gene, 36b4 was used. The mRNA expression levels were quantified in accordance with the ΔΔCt method. The target gene expression level in each sample was corrected with the expression level of 36b4 to obtain the relative expression level to 36b4 (ΔCT=the CT value of 36b4−the CT value of the target gene, the relative expression level=2ΔCT).
(§2) Moreover, the mRNA expression level ratio with the average value of the relative expression level of the saline group being set to 1 (the average value of the relative gene expression level of the D-allulose group to 36b4/the average value of the relative expression level of the saline group to 36b4) was obtained to analyze the change in gene expression level in the administration of D-allulose. […]

[1] = system: paraventricular nucleus (PVN), supraoptic nucleus (SON) and new region of the hypothalamus; experiment: c-Fos immunostaining of hypothalamus sections after oral administration; type: in vivo, C57BL/6J male mice; conditions: oral 1 or 3 g/kg, fasted mice, 90 minutes after administration, vs saline (FIG. 1A)
Procedure: (§3) For brain regions that are activated by the oral administration of D-allulose, the expression levels of a neuronal activation marker (c-Fos) were analyzed by the immunostaining method. c-Fos is one of immediate early genes, is a nuclear protein whose expression level increases along with activation of nerves, and thus can be utilized as a neuronal activation marker. C57BL/6J male mice were used as experimental animals and were acclimatized to an environment through preliminary breeding and handling for 1 week or more in individual cages. Saline or D-allulose (1 or 3 g/kg) was orally intragastrically administered to the mice which were fasted for one night, and 90 minutes after the administration, the mice were perfusion fixed in a 4% paraformaldehyde solution and the brains were resected. The organs were postfixed in a 4% paraformaldehyde solution to prepare frozen section specimens. This frozen section specimen was used to immunostain c-Fos. In the case of double immunostaining for oxytocin/vasopressin and c-Fos, the perfusion fixation and the postfixation were conducted in a mixed solution of 4% paraformaldehyde and 0.2% picric acid. Note that in the experiment for analyzing c-FOS expression level (FIG. 1A to FIG. 1D), C57BL/6J male mice of saline group: n=7, 1 g/kg and 3 g/kg D-allulose group: n=5 each were used. […]

oxytocin (OXT) neurons = experiment: double immunostaining for oxytocin and c-Fos after oral administration; type: in vivo, C57BL/6J male mice; conditions: oral 3 g/kg, 90 minutes after administration
Procedure: as §3, with “In” for “Note that in”, “c-Fos positive neurons in the oxytocin (OXT) neurons of paraventricular nucleus (PVN)” for “c-FOS expression level”, “2A and” for “1A to”, “2B),” for “1D),”, “n=4,” for “n=7, 1 g/kg and”, “n=6 were used. In the experiment for analyzing c-Fos positive neurons in the vasopressin (AVP) neurons of paraventricular nucleus (PVN) (FIG. 2C and FIG. 2D), C57BL/6J male mice of saline group: n=4, 3 g/kg D-allulose group: n=6 were used. In the experiment for analyzing c-Fos positive neurons in the oxytocin (OXT) neurons or vasopressin (AVP) neurons of paraventricular nucleus (PVN) (FIG. 3A and FIG. 3B), C57BL/6J male mice of saline group n=4, 3 g/kg D-allulose group: n=6 were used. In the experiment for analyzing c-Fos positive neurons in the oxytocin (OXT) neurons or vasopressin (AVP) neurons of the new region (FIG. 4A and FIG. 4B), C57BL/6J male mice of saline group: n=4, 3 g/kg D-allulose group: n=6” for “n=5 each”

[2] = system: vasopressin (AVP) neurons; experiment: double immunostaining for vasopressin and c-Fos after oral administration; type: in vivo, C57BL/6J male mice; conditions: oral 3 g/kg, 90 minutes after administration
Procedure: For brain regions that are activated by the oral administration of D-allulose, the expression levels of a neuronal activation marker (c-Fos) were analyzed by the immunostaining method. c-Fos is one of immediate early genes, is a nuclear protein whose expression level increases along with activation of nerves, and thus can be utilized as a neuronal activation marker. C57BL/6J male mice were used as experimental animals and were acclimatized to an environment through preliminary breeding and handling for 1 week or more in individual cages. Saline or D-allulose (1 or 3 g/kg) was orally intragastrically administered to the mice which were fasted for one night, and 90 minutes after the administration, the mice were perfusion fixed in a 4% paraformaldehyde solution and the brains were resected. The organs were postfixed in a 4% paraformaldehyde solution to prepare frozen section specimens. This frozen section specimen was used to immunostain c-Fos. In the case of double immunostaining for oxytocin/vasopressin and c-Fos, the perfusion fixation and the postfixation were conducted in a mixed solution of 4% paraformaldehyde and 0.2% picric acid. In the experiment for analyzing c-Fos positive neurons in the vasopressin (AVP) neurons of paraventricular nucleus (PVN) (FIG. 2C and FIG. 2D), C57BL/6J male mice of saline group: n=4, 3 g/kg D-allulose group: n=6 were used. In the experiment for analyzing c-Fos positive neurons in the oxytocin (OXT) neurons or vasopressin (AVP) neurons of paraventricular nucleus (PVN) (FIG. 3A and FIG. 3B), C57BL/6J male mice of saline group n=4, 3 g/kg D-allulose group: n=6 were used. In the experiment for analyzing c-Fos positive neurons in the oxytocin (OXT) neurons or vasopressin (AVP) neurons of the new region (FIG. 4A and FIG. 4B), C57BL/6J male mice of saline group: n=4, 3 g/kg D-allulose group: n=6 were used. The obtained results are represented by the average values and the standard errors, the statistical testing used the unpaired t-test, * is described by the P value of less than 5% and ** is described by the P value of less than 1%.

vasopressin mRNA = vasopressin mRNA expression in hypothalamus, quantitative real-time PCR; type: in vivo, C57BL/6J male mice; conditions: oral 3 g/kg, 2 hours after administration, vs saline-administered group, relative to 36b4 (FIG. 5)
Procedure: as §1, §2

C57BL/6J male mice [3] = experiment: Sociality test (social interaction test); type: in vivo; conditions: 10 minutes, vs saline, p<0.05 (FIG. 7B)
Procedure: The sociality test (also called the social interaction test) is an open field test using 2 individual mice that meet for the first time in order to investigate the sociality. The fundamental procedure of the sociality test is the same as that of the open field test using 1 individual member. However, at the time of starting the behavioral observation, mice are placed at the opposing corners of the field and their moving is recorded as moving picture for 10 minutes. This test is intended to evaluate the sociality of mice by measuring frequencies and times of social behaviors such as sniffing, grooming, attack, and tail-rattling between 2 individual members. C57BL/6J male mice (8-week old) were bred for 1 week under a free-feeding condition with a light-dark cycle of 12 hours and were subjected to the open field and sociality tests. Handling and gavage training was conducted for 4 days before the test. In order to evaluate the sociality with a same-sex mouse, each mouse was placed together with a mouse (new mouse) which it met for the first time in a breeding cage (27×27×20 cm^3) and an accumulation time of the exploratory behavior against the new mouse during an exploratory behavior time of 10 minutes was measured.

C57BL/6J male mice [4] = experiment: Open field test; type: in vivo; conditions: 5 minutes exploration
Excerpt: The open field test is a test that evaluates spontaneous activity, anxiety-like behavior, and the like in a novel environment by measuring the distance traveled, the number of rearings, the stereotyped behavior, the time spent in the center section, and the like under the novel environment. A mouse is placed in an open field, which is a novel and bright environment for a mouse, and is allowed to freely explore the open field for a certain period of time. The open field has a circular or square shape, and the size, in the case of a square, varies from a side of over 1 m to 30 cm or less. The experiment time is approximately 5 minutes in general, and significant overactivity, dormancy, and the like can be detected through observation for such a short period of time. In addition, a change in the behavior of an animal over time under a novel environment can be observed by recording for a long period of time. Since it is said that mice get accustomed to the open field environment by 30 minutes to approximately 2 hours, the experiment time is often set between 30 minutes to 3 hours. Also, the open field test is often used for analyzing the phenotyping of gene-modified mice and testing the reactivity to pharmaceutical agents. […] The duration of time spent in the center square (9×9 […]) during an exploratory behavior time of 5 minutes was measured.

O=C(CO)[C@H](O)[C@H](O)[C@H](O)CO [D-allulose]
expression of the mRNA of oxytocin in the hypothalamus (oxytocin mRNA): significantly enhanced
c-Fos expression level in the paraventricular nucleus (PVN), the supraoptic nucleus (SON), and a new region of the hypothalamus [1]: significantly facilitated
c-Fos expression level in the oxytocin (OXT) neuron of the paraventricular nucleus (PVN) (oxytocin (OXT) neurons; vs saline (FIGS. 2A, 2B)): significantly increased
activation (c-Fos) of the oxytocin neurons of the supraoptic nucleus (SON) (oxytocin (OXT) neurons; vs saline (FIGS. 3A, 3B)): activated
activation (c-Fos) of the oxytocin neurons in the new region of the hypothalamus (oxytocin (OXT) neurons; vs saline (FIGS. 4A, 4B)): activated
activation (c-Fos) of the vasopressin (AVP) neuron of the paraventricular nucleus (PVN) ([2]; vs saline (FIGS. 2C, 2D)): activated
activation (c-Fos) of the vasopressin neurons of the supraoptic nucleus (SON) ([2]; vs saline (FIGS. 3A, 3B)): activated
activation (c-Fos) of the vasopressin neurons in the new region of the hypothalamus ([2]; vs saline (FIGS. 4A, 4B)): activated
expression of the mRNA of vasopressin in the hypothalamus (vasopressin mRNA): significantly enhanced
social behavior: accumulation time of exploratory behavior against the new mouse (C57BL/6J male mice [3]; 1 g/kg oral): significantly facilitated
social behavior: accumulation time of exploratory behavior against the new mouse (C57BL/6J male mice [3]; 3 g/kg oral): significantly facilitated
anxiety behavior: duration of time spent in the center square (C57BL/6J male mice [4]; 1 g/kg oral 30 minutes before test, vs saline (FIG. 6B)): no significant result
anxiety behavior: duration of time spent in the center square (C57BL/6J male mice [4]; 3 g/kg oral 30 minutes before test, vs saline, p<0.05 (FIG. 6B)): significantly improved

— patent US11318152B2, “Pharmaceutical agent for improving autism spectrum disorder and mental disease” (MATSUTANI CHEMICAL INDUSTRY CO., LTD., priority 2018, dated 2022)
